These results are taken from patent publication US9868692B2, “Compounds and compositions for intracellular delivery of therapeutic agents” (MODERNATX, Inc., priority 2015, dated 2018).

Data set [1] can be described thus: Particle size, polydispersity index (and zeta potential) of nanoparticle compositions, Zetasizer Nano ZS. Type of data set: physicochemical. The following applies: Table 1A formulations. The text has this: Nanoparticle compositions may be characterized by a variety of methods. For example, microscopy (e.g., transmission electron microscopy or scanning electron microscopy) may be used to examine the morphology and size distribution of a nanoparticle composition. Dynamic light scattering or potentiometry (e.g., potentiometric titrations) may be used to measure zeta potentials. Dynamic light scattering may also be utilized to determine particle sizes. Instruments such as the Zetasizer Nano ZS (Malvern Instruments Ltd, Malvern, Worcestershire, UK) may also be used to measure multiple characteristics of a nanoparticle composition, such as particle size, polydispersity index, and zeta potential.
A Zetasizer Nano ZS (Malvern Instruments Ltd, Malvern, Worcestershire, UK) can be used to determine the particle size, the polydispersity index (PDI) and the zeta potential of the nanoparticle compositions in 1×PBS in determining particle size and 15 mM PBS in determining zeta potential.

The nature of data set [2]: Encapsulation efficiency of RNA, QUANT-IT RIBOGREEN RNA assay. Type of data set: physicochemical. The settings on record: Table 1A formulations. The source says: The efficiency of encapsulation of a therapeutic and/or prophylactic describes the amount of therapeutic and/or prophylactic that is encapsulated or otherwise associated with a nanoparticle composition after preparation, relative to the initial amount provided. The encapsulation efficiency is desirably high (e.g., close to 100%). The encapsulation efficiency may be measured, for example, by comparing the amount of therapeutic and/or prophylactic in a solution containing the nanoparticle composition before and after breaking up the nanoparticle composition with one or more organic solvents or detergents. Fluorescence may be used to measure the amount of free therapeutic and/or prophylactic (e.g., RNA) in a solution. For the nanoparticle compositions described herein, the encapsulation efficiency of a therapeutic and/or prophylactic may be at least 50%, for example 50%, 55%, 60%, 65%, 70%, 75%, 80%, 85%, 90%, 91%, 92%, 93%, 94%, 95%, 96%, 97%, 98%, 99%, or 100%. In some embodiments, the encapsulation efficiency may be at least 80%. In certain embodiments, the encapsulation efficiency may be at least 90%.
For nanoparticle compositions including an RNA, a QUANT-IT™ RIBOGREEN® RNA assay (Invitrogen Corporation Carlsbad, Calif.) can be used to evaluate the encapsulation of an RNA by the nanoparticle composition. The samples are diluted to a concentration of approximately 5 μg/mL in a TE buffer solution (10 mM Tris-HCl, 1 mM EDTA, pH 7.5). 50 μL of the diluted samples are transferred to a polystyrene 96 well plate and either 50 μL of TE buffer or 50 μL of a 2% Triton X-100 solution is added to the wells. The plate is incubated at a temperature of 37° C. for 15 minutes. The RIBOGREEN® reagent is diluted 1:100 in TE buffer, and 100 μL of this solution is added to each well. The fluorescence intensity can be measured using a fluorescence plate reader (Wallac Victor 1420 Multilablel Counter; Perkin Elmer, Waltham, Mass.) at an excitation wavelength of, for example, about 480 nm and an emission wavelength of, for example, about 520 nm. The fluorescence values of the reagent blank are subtracted from that of each of the samples and the percentage of free RNA is determined by dividing the fluorescence intensity of the intact sample (without addition of Triton X-100) by the fluorescence value of the disrupted sample (caused by the addition of Triton X-100).

The nature of data set [3]: Lipid clearance: % dose remaining in liver after administration of Luc formulations. Type of data set: in vivo, mice. The settings on record: Table 3D.
The nature of data set [4]: Residual lipid level in liver of rats (UPLC-MS quantification). Type of data set: in vivo. The following applies: rat, liver, iv, intravenous, 48 hours, read-out: Liver level. Here is the method: (§1) To pre-weighed tissues, Milli-Q water was added (900 μL water per 100 mg tissue). Tissues were homogenized using an Omni probe homogenizer until uniform. 50 μL of samples and matrix calibration standards were aliquoted into a 96-well plate. 50 μL of blank matrix for matrix blanks and control blanks were aliquoted. 400 μL IS spiking solution were manually added to all samples except matrix blanks. 400 μL of 50:50 ACN:IPA were manually added to matrix blanks. The plate was covered and the samples vortexed and centrifuged for 5 minutes at >3000 rpm. 200 μL of the samples were transferred into a clean 96-well plate for analysis. […] Detection was based on electrospray ionization (ESI) in positive mode using a Sciex API5500 Mass Spectrometer.
(§2) The expression of hEPO in rats intravenously administered a nanoparticle composition at a dose of 0.2 mpk or 2.0 mpk was measured at 6 hours. […] Liver and spleen levels represent the average values calculated for 3 rats in each group.
(§3) The expression of hEPO and lipid levels in the liver and spleen in rats intravenously administered a nanoparticle composition at a dose of 0.2 mpk was measured at various timepoints. […] Lipids were formulated according to the standard MC3 formulation described above.

The nature of data set [5]: Residual lipid level in spleen of rats (UPLC-MS quantification). The settings on record: rat, iv, 48 hours, read-out: Spleen level. Type of data set: in vivo. Here is the method: as §1, §2, §3

Where only a bound is given, the exact number is not on record here.

`CCCCCCCCCOC(=O)CCCCCCCN(CCCCCCCC(=O)OC(CCCCCCCC)CCCCCCCC)CCCNC(=S)NC` [Compound 113, Heptadecan-9-yl 8-((3-(3-methylthioureido)propyl)(8-(nonyloxy)-8-oxooctyl)amino)octanoate] returned a PDI in data set [1] of 0.15. For the same molecule, the “EE (%)” value in data set [2] turned out to be 99%.

As for `CCCCCCCCCOC(=O)CCCCCCCN(CCCCCCCC(=O)OC(CCCCCCCC)CCCCCCCC)CCCN1C(=O)CNC1=O` [Compound 174, Heptadecan-9-yl 8-((3-(2,5-dioxoimidazolidin-1-yl)propyl)(8-(nonyloxy)-8-oxooctyl)amino)octanoate], the PDI in data set [1] worked out at 0.12. Further, the “EE (%)” value in data set [2] amounted to 98.52%.

Turning to `CCCCCCCCCC(=O)OCCCCCCCN(CCO)CCCCCCCC(=O)OC(CCCCCCCC)CCCCCCCC` [Compound 96, 7-((8-(Heptadecan-9-yloxy)-8-oxooctyl)(2-hydroxyethyl)amino)heptyl decanoate], the “% Dose Remaining in Liver 6h” value in data set [3] (first column of this head) and in data set [3] (second column of this head) was less than 1% throughout.

In data set [1], `CCCCCCCCC(CC)OC(=O)CCCCCCCN(CCO)CCCCCCCC(=O)OC(CCCCCCCC)CCCCCCCC` (centres unmarked) [Compound 49, heptadecan-9-yl 8-((2-hydroxyethyl)(8-oxo-8-(undecan-3-yloxy)octyl)amino)octanoate] showed a PDI of 0.110. The concentration at 48 h in data set [4] (0.2 mg/kg, 0.2 mpk) was found to be 6490 ng/g; in data set [4] (2 mg/kg, 2 mpk) it was 61400 ng/g; in data set [5] (0.2 mg/kg, 0.2 mpk) it was 0.36; in data set [5] (2 mg/kg, 2 mpk), 0.37. Moreover, the “EE (%)” value in data set [2] amounted to 96.86%.

`CCCCCCCCC(CCCCCCCC)OC(=O)CCCCCCCN(CCO)CCCCCC(=O)OC(CCCCCCCC)C1CC1` (centres unmarked) [Compound 128, Heptadecan-9-yl 8-((6-((1-cyclopropylnonyl)oxy)-6-oxohexyl)(2-hydroxyethyl)amino)octanoate]: in data set [1], the PDI amounted to 0.14. Besides, in data set [2], the “EE (%)” value came to 98.2%.

Take `CCCCCCCCCOC(=O)CCCCCCCN(CCO)CCCCCCCCCC(CCCCCCCC)CCCCCCCC` [Compound 153, Nonyl 8-((2-hydroxyethyl)(10-octyloctadecyl)amino)octanoate]: the “% Dose Remaining in Liver 6h” value in data set [3] (first column of this head) and in data set [3] (second column of this head) was less than 1% in each case.

In turn, `CCCCCCCCCOC(=O)CCCCCCCN(CCCCCCCC(=O)OC(CCCCCCCC)CCCCCCCC)C(C)CO` (centres unmarked) [Compound 157, Heptadecan-9-yl 8-((1-hydroxypropan-2-yl)(8-(nonyloxy)-8-oxooctyl)amino)octanoate] returned a PDI in data set [1] of 0.096. Besides, the “% Dose Remaining in Liver 6h” value in data set [3] (first column of this head) and in data set [3] (second column of this head) was less than 1% each time.

Molecule `CCCCCCCCC(CC)OC(=O)CCCN(CCO)CCCCCCCC(=O)OC(CCCCCCCC)CCCCCCCC` (centres unmarked) [Compound 72, Heptadecan-9-yl 8-((2-hydroxyethyl)(4-oxo-4-(undecan-3-yloxy)butyl)amino)octanoate] gave a PDI in data set [1] of 0.11. The “EE (%)” value in data set [2] was determined as 97.3%.

The molecule `CCCCCCCCCOC(=O)CCCCCCCN(CCCCCCCC(=O)OC(CCCCCCCC)CCCCCCCC)C(CO)CO` [Compound 156, Heptadecan-9-yl 8-((1,3-dihydroxypropan-2-yl)(8-(nonyloxy)-8-oxooctyl)amino)octanoate] came in with a PDI in data set [1] of 0.072. Also, the “EE (%)” value in data set [2] is recorded as 98.90%.

Molecule `CCCCCCCCCOC(=O)CCCCCCCN(CCCCCCCC(=O)OC(CCCCCCCC)CCCCCCCC)CCCNC(=S)N(C)C` [Compound 111, Heptadecan-9-yl 8-((3-(3,3-dimethylthioureido)propyl)(8-(nonyloxy)-8-oxooctyl)amino)octanoate] gave a PDI in data set [1] of 0.14. Moreover, the “EE (%)” value in data set [2] turned out to be 98.2%.

Regarding `CCCCCCCCCC(=O)OCCCCCCCN(CCO)CCCCCCCOC(=O)C(CCCCCCCC)CCCCCCCC` [Compound 151, 7-((7-(Decanoyloxy)heptyl)(2-hydroxyethyl)amino)heptyl 2-octyldecanoate], the “% Dose Remaining in Liver 6h” value in data set [3] (first column of this head) and in data set [3] (second column of this head) was less than 1% throughout.

As for `CCCCCCCCCOC(=O)CCCCCCCN(CCCCCCCC(=O)OC(CCCCCCCC)CCCCCCCC)CCCNc1c(N(C)C)c(=O)c1=O` [Compound 169, Heptadecan-9-yl 8-((3-((2-(dimethylamino)-3,4-dioxocyclobut-1-en-1-yl)amino)propyl)(8-(nonyloxy)-8-oxooctyl)amino)octanoate], the PDI in data set [1] amounted to 0.18. In addition, in data set [2], the “EE (%)” value was 99.04%.

As to `CCCCCCCCC(CCCCCCCC)OC(=O)CCCCCCCN(C)CCCCCCCCCCCC(=O)OCCCCC` [Compound 150, Pentyl 12-((8-(heptadecan-9-yloxy)-8-oxooctyl)(methyl)amino)dodecanoate], the “% Dose Remaining in Liver 6h” value in data set [3] (first column of this head) and in data set [3] (second column of this head) was less than 1% each time.

In the case of `CCCCCCCCCOC(=O)CCCCCCCN(CCCCCCCC(=O)OC(CCCCCCCC)CCCCCCCC)CCCN/C(=C/[N+](=O)[O-])NC` [Compound 170, Heptadecan-9-yl (E)-8-((3-((1-(methylamino)-2-nitrovinyl)amino)propyl)(8-(nonyloxy)-8-oxooctyl)amino)octanoate], the PDI in data set [1] stood at 0.12. Moreover, the “EE (%)” value in data set [2] amounted to 98.24%.

Regarding `CCCCCCCCC(CCCCCCCC)OC(=O)CCCCCCCN(CCO)CCCCCCCC(=O)OCC(CCCCCCC)OC` (centres unmarked) [Compound 148, Heptadecan-9-yl 8-((2-hydroxyethyl)(8-((2-methoxynonyl)oxy)-8-oxooctyl)amino)octanoate], the “% Dose Remaining in Liver 6h” value in data set [3] (first column of this head) and in data set [3] (second column of this head) was less than 1% throughout.

For `CCCCCCCCCOC(=O)CCCCCCCN(CCCCCCCC(=O)OC(CCCCCCCC)CCCCCCCC)CCCNC(=O)N(C)C` [Compound 110, Heptadecan-9-yl 8-((3-(3,3-dimethylureido)propyl)(8-(nonyloxy)-8-oxooctyl)amino)octanoate], the PDI in data set [1] worked out at 0.13. Besides, the “EE (%)” value in data set [2] is recorded as 97.4%.

With `CCCCCCCCC(CC)OC(=O)CCCCCN(CCO)CCCCCCCC(=O)OC(CCCCCCCC)CCCCCCCC` (centres unmarked) [Compound 75, Heptadecan-9-yl 8-((2-hydroxyethyl)(6-oxo-6-(undecan-3-yloxy)hexyl)amino)octanoate], the PDI in data set [1] is on record as 0.10. The “EE (%)” value in data set [2] is 98.1%.

As to `CCCC/C=C\CCC(CC/C=C\CCCC)OC(=O)CCCCCCCN(CCO)CCCCCC(=O)OCCCCCCCCCCC` [Compound 61, (5Z,12Z)-heptadeca-5,12-dien-9-yl 8-((2-hydroxyethyl)(6-oxo-6-(undecyloxy)hexyl)amino)octanoate], the PDI in data set [1] is on record as 0.11. In data set [2], the “EE (%)” value was 97.2%.
